Assay results as given in US10807986B2, “Fused pyrimidine compound or salt thereof” (TAIHO PHARMACEUTICAL CO., LTD., priority 2016, dated 2020).

Assay: Evaluation of stability in liver microsome
Conditions: mouse liver microsome 0.25 mg/mL, test compound 1 μM, 37° C., 30 minutes

Row | SMILES | Remaining (%)
1 | COCc1ccc(NC(=O)c2c(C#Cc3ccc4c(c3)NCCO4)n(C3(C)CC3)c3ncnc(N)c23)cc1 [Example 158, 4-amino-6-((3,4-dihydro-2H-benzo[b][1,4]oxazin-6-yl)ethynyl)-N-(4-(methoxymethyl)phenyl)-7-(1-methylcyclopropyl)-7H-pyrrolo[2,3-d]pyrimidine-5-carboxamide] | 85%
2 | COCc1ccc(NC(=O)c2c(C#Cc3cnc4ccoc4c3)n(C3(C)CC3)c3ncnc(N)c23)cc1 [Example 159, 4-amino-6-(furo[3,2-b]pyridin-6-ylethynyl)-N-(4-(methoxymethyl)phenyl)-7-(1-methylcyclopropyl)-7H-pyrrolo[2,3-d]pyrimidine-5-carboxamide] | 78%
3 | COCc1ccc(NC(=O)c2c(C#Cc3ccc[nH]3)n(C3(C)CC3)c3ncnc(N)c23)cc1 [Example 161, 6-((1H-pyrrol-2-yl)ethynyl)-4-amino-N-(4-(methoxymethyl)phenyl)-7-(1-methylcyclopropyl)-7H-pyrrolo[2,3-d]pyrimidine-5-carboxamide] | 68%
4 | COCc1ccc(NC(=O)c2c(C#Cc3ccccc3)n(C3(C)CC3)c3ncnc(N)c23)cc1 [Example 162, 4-amino-N-(4-(methoxymethyl)phenyl)-7-(1-methylcyclopropyl)-6-(phenylethynyl)-7H-pyrrolo[2,3-d]pyrimidine-5-carboxamide] | 76%
5 | COCc1ccc(NC(=O)c2c(C#Cc3ccc(OC)cc3)n(C3(C)CC3)c3ncnc(N)c23)cc1 [Example 165, 4-amino-N-(4-(methoxymethyl)phenyl)-6-((4-methoxypheny)ethynyl)-7-(1-methylcyclopropyl)-7H-pyrrolo[2,3-d]pyrimidine-5-carboxamide] | 90%
6 | COCc1ccc(NC(=O)c2c(-c3cn[nH]c3)n(C3(C)CC3)c3ncnc(N)c23)cc1 [Example 167, 4-amino-N-(4-(methoxymethyl)phenyl)-7-(1-methylcyclopropyl)-6-(1H-pyrazol-4-yl)-7H-pyrrolo[2,3-d]pyrimidine-5-carboxamide] | 80%
7 | COCc1ccc(NC(=O)c2c(-c3ccc(N4CCN(C)CC4)cc3)n(C3(C)CC3)c3ncnc(N)c23)cc1 [Example 171, 4-amino-N-(4-(methoxymethyl)phenyl)-7-(1-methylcyclopropyl)-6-(4-(4-methylpiperazin-1-yl)phenyl)-7H-pyrrolo[2,3-d]pyrimidine-5-carboxamide] | 77%
8 | COCc1ccc(NC(=O)c2c(C#Cc3ccccn3)n(C3(C)CC3)c3ncnc(N)c23)cc1 [Example 172, 4-amino-N-[4-(methoxymethyl)phenyl]-7-(1-methylcyclopropyl)-6-(pyridin-2-ylethynyl)-7H-pyrrolo[2,3-d]pyrimidine-5-carboxamide] | 61%
9 | COCc1ccc(NC(=O)c2c(C#CC(C)(C)O)n(C3(C)CC3)c3ncnc(N)c23)cc1 [Example 174, 4-amino-6-(3-hydroxy-3-methylbut-1-yn-1-yl)-N-(4-(methoxymethyl)phenyl)-7-(1-methylcyclopropyl)-7H-pyrrolo[2,3-d]pyrimidine-5-carboxamide] | 72%
10 | COCc1ccc(NC(=O)c2c(C#Cc3cncc(F)c3)n(C3(C)CC3)c3ncnc(N)c23)cc1 [Example 175, 4-amino-6-((5-fluoropyridin-3-yl)ethynyl)-N-(4-(methoxymethyl)phenyl)-7-(1-methylcyclopropyl)-7H-pyrrolo[2,3-d]pyrimidine-5-carboxamide] | 66%
11 | COCc1ccc(NC(=O)c2c(C#Cc3ccsc3)n(C3(C)CC3)c3ncnc(N)c23)cc1 [Example 176, 4-amino-N-(4-(methoxymethyl)phenyl)-7-(1-methylcyclopropyl)-6-(thiophen-3-ylethynyl)-7H-pyrrolo[2,3-d]pyrimidine-5-carboxamide] | 70%
12 | COCc1ccc(NC(=O)c2c(C#CC3(O)CCOC3)n(C3(C)CC3)c3ncnc(N)c23)cc1 (centres unmarked) [Example 177, 4-amino-6-((3-hydroxytetrahydrofuran-3-yl)ethynyl)-N-(4-(methoxymethyl)phenyl)-7-(1-methylcyclopropyl)-7H-pyrrolo[2,3-d]pyrimidine-5-carboxamide] | 72%

Second part, the molecule after the results:

Row | Remaining (%) | SMILES
13 | 88% | COCc1ccc(NC(=O)c2c(C#CCN3CC[S+]([O-])CC3)n(C3(C)CC3)c3ncnc(N)c23)cc1 [Example 178, 4-amino-N-(4-(methoxymethyl)phenyl)-7-(1-methylcyclopropyl)-6-(3-(1-oxidethiomorpholino)prop-1-yn-1-yl)-7H-pyrrolo[2,3-d]pyrimidine-5-carboxamide]
14 | 85% | COCc1ccc(NC(=O)c2c(-c3ccc(CO)nc3)n(C3(C)CC3)c3ncnc(N)c23)cc1 [Example 179, 4-amino-6-(6-(hydroxymethyl)pyridin-3-yl)-N-(4-(methoxymethyl)phenyl)-7-(1-methylcyclopropyl)-7H-pyrrolo[2,3-d]pyrimidine-5-carboxamide]
15 | 62% | COCc1ccc(NC(=O)c2c(C#Cc3cn(C)nc3C)n(C3(C)CC3)c3ncnc(N)c23)cc1 [Example 181, 4-amino-6-((1,3-dimethyl-1H-pyrazol-4-yl)ethynyl)-N-(4-(methoxymethyl)phenyl)-7-(1-methylcyclopropyl)-7H-pyrrolo[2,3-d]pyrimidine-5-carboxamide]
16 | 61% | COCc1ccc(NC(=O)c2c(C#Cc3cnn(C)c3C)n(C3(C)CC3)c3ncnc(N)c23)cc1 [Example 182, 4-amino-6-((1,5-dimethyl-1H-pyrazol-4-yl)ethynyl)-N-(4-(methoxymethyl)phenyl)-7-(1-methylcyclopropy1)-7H-pyrrolo[2,3-d]pyrimidine-5-carboxamide]
17 | 77% | COCc1ccc(NC(=O)c2c(C#CC3CCN(C)CC3)n(C3(C)CC3)c3ncnc(N)c23)cc1 [Example 183, 4-amino-N-(4-(methoxymethyl)phenyl)-7-(1-methylcyclopropyl)-6-((1-methylpiperidin-4-yl)ethynyl)-7H-pyrrolo[2,3-d]pyrimidine-5-carboxamide]
18 | 58% | COCc1ccc(NC(=O)c2c(C#Cc3c(C)noc3C)n(C3(C)CC3)c3ncnc(N)c23)cc1 [Example 184, 4-amino-6-((3,5-dimethylisoxazol-4-yl)ethynyl)-N-(4-(methoxymethyl)phenyl)-7-(1-methylcyclopropyl)-7H-pyrrolo[2,3-d]pyrimidine-5-carboxamide]
19 | 80% | COCc1ccc(NC(=O)c2c(C#CC3(O)CCOCC3)n(C3(C)CC3)c3ncnc(N)c23)cc1 [Example 185, 4-amino-6-((4-hydroxytetrahydro-2H-pyran4-yl)ethynyl)-N-(4-(methoxymethyl)phenyl)-7-(1-methylcyclopropyl)-7H-pyrrolo[2,3-d]pyrimidine-5-carboxamide]
20 | 68% | COCc1ccc(NC(=O)c2c(C#CCCN3CCOCC3)n(C3(C)CC3)c3ncnc(N)c23)cc1 [Example 187, 4-amino-N-(4-(methoxymethyl)phenyl)-7-(1-methylcyclopropyl)-6-(4-morpholinobut-1-yn-1-yl)-7H-pyrrolo [2,3-d]pyrimidine-5-carboxamide]
21 | 68% | COCc1ccc(NC(=O)c2c(C#CCC(C)O)n(C3(C)CC3)c3ncnc(N)c23)cc1 (centres unmarked) [Example 188, 4-amino-6-(4-hydroxypent-1-yn-1-yl)-N-(4-(methoxymethyl)phenyl)-7-(1-methylcyclopropyl)-7H-pyrrolo[2,3-d]pyrimidine-5-carboxamide]
22 | 58% | COCc1ccc(NC(=O)c2c(-c3ccc(F)nc3)n(C3(C)CC3)c3ncnc(N)c23)cc1 [Example 190, 4-amino-6-(6-fluoropyridin-3-yl)-N-(4-(methoxymethyl)phenyl)-7-(1-methylcyclopropyl)-7H-pyrrolo[2,3-d]pyrimidine-5-carboxamide]
23 | 53% | COCc1ccc(NC(=O)c2c(C#Cc3cnc[nH]3)n(C3(C)CC3)c3ncnc(N)c23)cc1 [Example 191, 6-((1H-imidazol-5-yl)ethynyl)-4-amino-N-(4-(methoxymethyl)phenyl)-7-(1-methylcyclopropyl)-7H-pyrrolo[2,3-d]pyrimidine-5-carboxamide]
24 | 79% | COCc1ccc(NC(=O)c2c(C#Cc3ccc(OC)nc3)n(C3(C)CC3)c3ncnc(N)c23)cc1 [Example 192, 4-amino-N-(4-(methoxymethyl)phenyl)-6-((6-methoxypyridin-3-yl)ethynyl)-7-(1-methylcyclopropyl)-7H-pyrrolo[2,3-d]pyrimidine-5-carboxamide]
25 | 51% | COCc1ccc(NC(=O)c2c(C#Cc3cncs3)n(C3(C)CC3)c3ncnc(N)c23)cc1 [Example 193, 4-amino-N-[4-(methoxymethyl)phenyl]-7-(1-methylcyclopropyl)-6-(thiazol-5-ylethynyl)-7H-pyrrolo[2,3-d]pyrimidine-5-carboxamide]
26 | 67% | COCc1ccc(NC(=O)c2c(-c3cncnc3)n(C3(C)CC3)c3ncnc(N)c23)cc1 [Example 194, 4-amino-N-(4-(methoxymethyl)phenyl)-7-(1-methylcyclopropyl)-6-(pyrimidin-5-yl)-7H-pyrrolo[2,3-d]pyrimidine-5-carboxamide]
27 | 70% | COCc1ccc(NC(=O)c2c(C#Cc3cncc(C#N)c3)n(C3(C)CC3)c3ncnc(N)c23)cc1 [Example 195, 4-amino-6-((5-cyanopyridin-3-yl)ethynyl)-N-(4-(methoxymethyl)phenyl)-7-(1-methylcyclopropyl)-7H-pyrrolo[2,3-d]pyrimidine-5-carboxamide]
28 | 53% | COCc1ccc(NC(=O)c2c(C#Cc3cncnc3)n(C3(C)CC3)c3ncnc(N)c23)cc1 [Example 196, 4-amino-N-(4-(methoxymethyl)phenyl)-7-(1-methylcyclopropyl)-6-(pyrimidin-5-ylethynyl)-7H-pyrrolo[2,3-d]pyrimidine-5-carboxamide]
29 | 52% | COCCN(C)CC#Cc1c(C(=O)Nc2ccc(COC)cc2)c2c(N)ncnc2n1C1(C)CC1 [Example 197, 4-amino-6-(3-((2-methoxyethyl)(methyl)amino)prop-1-yn-1-yl)-N-(4-(methoxymethyl)phenyl)-7-(1-methylcyclopropyl)-7H-pyrrolo[2,3-d]pyrimidine-5-carboxamide]
